According to patent publication US7282507B2, “Indole derivatives as selective androgen receptor modulators (SARMS)” (Janssen Pharmaceutica N.V., priority 2004, dated 2007):

Biological target: T1, androgen receptor (rat ventral prostate cytosol) (Rattus norvegicus, UniProt P15207)
T1 construct: from tissue; host or cells: ventral prostate cytosol of castrated male Sprague Dawley or Wistar rats
T1 sequence (P15207 1-902): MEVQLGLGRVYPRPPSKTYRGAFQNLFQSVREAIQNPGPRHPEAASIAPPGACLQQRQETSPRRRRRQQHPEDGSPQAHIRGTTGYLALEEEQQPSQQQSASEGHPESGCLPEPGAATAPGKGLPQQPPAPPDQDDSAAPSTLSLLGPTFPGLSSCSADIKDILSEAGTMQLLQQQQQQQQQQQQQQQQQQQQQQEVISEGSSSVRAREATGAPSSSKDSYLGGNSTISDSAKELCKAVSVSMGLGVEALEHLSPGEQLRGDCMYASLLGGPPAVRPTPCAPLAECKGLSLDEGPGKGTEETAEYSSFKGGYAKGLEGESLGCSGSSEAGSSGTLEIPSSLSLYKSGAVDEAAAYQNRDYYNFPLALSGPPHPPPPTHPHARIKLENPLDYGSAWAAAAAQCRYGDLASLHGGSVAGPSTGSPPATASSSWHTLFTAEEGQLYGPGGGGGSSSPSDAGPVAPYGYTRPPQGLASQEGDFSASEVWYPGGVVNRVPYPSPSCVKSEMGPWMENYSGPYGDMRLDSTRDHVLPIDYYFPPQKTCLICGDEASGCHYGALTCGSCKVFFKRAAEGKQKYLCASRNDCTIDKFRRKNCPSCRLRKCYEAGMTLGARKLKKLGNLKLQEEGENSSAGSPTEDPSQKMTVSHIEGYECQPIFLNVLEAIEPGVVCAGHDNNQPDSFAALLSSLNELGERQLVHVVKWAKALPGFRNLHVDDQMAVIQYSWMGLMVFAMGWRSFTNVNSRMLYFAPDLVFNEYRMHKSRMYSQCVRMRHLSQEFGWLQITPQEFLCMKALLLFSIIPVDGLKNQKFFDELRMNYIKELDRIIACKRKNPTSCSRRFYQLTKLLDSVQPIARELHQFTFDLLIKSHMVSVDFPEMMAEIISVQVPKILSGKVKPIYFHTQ
Test: Androgen Receptor Binding Using Rat Ventral Prostate Cytosol
Details: for % Inhibition, Androgen Receptor Binding (Rat Cytosol) / inhibition at 1 µM: Concentration 1000 nM; for IC50: read-out: IC50 (nM), Androgen Receptor Binding (Rat Cytosol); for inhibition at 1 µM: read-out: % Inhibition, Androgen Receptor Binding (Rat Cytosol)
Method: The assay was run on a 96 well plate with each well filled with a total reaction volume 150 μL, of a solution containing 5 pmol androgen receptor LBD (Panvera) or 30 μL of freshly prepared rat cytosol, 0.5 nM [^3H] […] (TED buffer contains 10 mM Tris.HCl pH 7.4, 1 mM sodium molybdate, 1.5 mM EDTA, 1 mM DTT and 10% (v/v) glycerol.)
On day one, the solution containing receptor, tracer and TED buffer was distributed into a 96 well plate. Diluted test compound or control vehicle was then added to individual wells and the plate incubated at 4° C. overnight.
On day two, to each well was then added 20 μL human γ-globulin (ICN 823102), prepared at 25 mg/ml in TE pH 8.0, and 55 μL 40% polyethylene glycol 8000 (J T Baker U222-08), prepared in TE pH 8.0. The plate was incubated at 4° C. for 60 minutes. During incubation, the harvester was rinsed with 10% PEG 8000, prepared in TE pH 8.0, and a GF/C Unifilter-96 was pre-wet with 10% PEG. The binding reaction was filtered, the retentate was washed three times with 10% PEG and dried under vacuum for a couple of minutes, then dried at 50° C. for 5 min and the plate was bottom sealed. Next, 25 μL of Microscint-20 (Packard) was added to the filter wells and the plate was top sealed. The plate wells were then counted on a TopCount (Packard).
Rat Prostate Cytosol Preparation:
Male Sprague Dawley or Wistar rats (Charles River, 200-300 g) were used for each preparation. The day before preparing the cytosol, the rats were castrated using standard surgical procedures.
The rats were euthanized by carbon dioxide asphyxiation. The rat prostates were quickly removed and placed on ice in pre-chilled, pre-weighed 50 mL plastic tubes. No more than five prostates were placed into one tube. The tubes were then weighed and the prostate tissue wet weights calculated.
To the chilled prostate tissue was then added […] of chilled homogenization buffer. The homogenization buffer was freshly prepared by mixing 10 mM Tris.HCl, pH 7.4, 1 mM sodium molybdate, 1.5 mM EDTA, 1 mM dithiothreitol, 10% (v/v) glycerol and 1% protease inhibitor cocktail (Sigma P 8340).
The prostate tissue was homogenized in a cold room using a pre-chilled Polytron PT3000 homogenizer (Brinkmann). Homogenization was performed at a speed setting of 20, three times for 10 sec bursts. The tubes containing the prostate tissue was kept on ice while homogenizing. The homogenate was allowed to rest on ice for 20 sec between bursts.
The homogenate was then placed into pre-chilled 3 mL polycarbonate ultracentrifuge tubes and centrifuged in the TLA-100 rotor of a TL-100 ultracentrifuge for 12 min at 100,000 rpm at 4° C. The resulting supernatant was stored in 1 mL aliquots at −80° C. until needed.
Binding to the androgen receptor was determined according to the protocol described in Example 86 using the above prepared rat cytosol.
% Inhibition was determined by testing dilutions of the test compound (usually duplicates of 10 μM) in the binding assay. Counts per well were measured and percents of inhibition determined. […] Counts per well were measured and IC50s determined by linear regression.

| Compound | % Inhibition, Androgen Receptor Binding (Rat Cytosol) [%] | IC50 [nM] | inhibition at 1 µM [%] | % Inhibition, Androgen Receptor Binding (Rat Cytosol) (1 µM) [%] |
| --- | --- | --- | --- | --- |
| Cc1ccc(CN2CCC(O)(c3cc4cc(Cl)c(C(F)(F)F)cc4[nH]3)CC2)cc1 [Compound 30] | −7.7 | 4100 | – | – |
| Cc1ccc(CN2CCC(O)(c3cc4cc([N+](=O)[O-])c(C(F)(F)F)cc4[nH]3)CC2)cc1 [Compound 42] | – | 7100 | 23 | – |
| O=[N+]([O-])c1cc2cc(C3(O)CCN(Cc4ccc(Cl)cc4)CC3)[nH]c2cc1C(F)(F)F [Compound 40] | – | 3800 | – | −2.5 |
| COc1ccc(CN2CCC(O)(c3cc4cc(Cl)c(C(F)(F)F)cc4[nH]3)CC2)cc1 [Compound 35] | −19 | 4200 | – | – |
| OC1(c2cc3cc(Cl)c(C(F)(F)F)cc3[nH]2)CCN(Cc2ccc(C(F)(F)F)cc2)CC1 [Compound 33] | 11 | 29000 | – | – |
| OC1(c2cc3cc(Cl)c(C(F)(F)F)cc3[nH]2)CCN(Cc2ccc(F)cc2)CC1 [Compound 28] | −3.4 | 7000 | – | – |
| O=[N+]([O-])c1cc2cc(C3(O)CCN(Cc4ccc(Cl)c(Cl)c4)CC3)[nH]c2cc1C(F)(F)F [Compound 43] | 5.8 | 9100 | – | – |
| O=[N+]([O-])c1cc2cc(C3(O)CCN(Cc4ccc(Cl)cc4)CC3)[nH]c2cc1C(F)(F)F [Compound 41] | – | 2300 | – | 20 |
| CS(=O)(=O)n1c(C2(O)CCN(C(=O)c3ccc(Cl)cc3)CC2)cc2cc(Cl)c(C(F)(F)F)cc21 [Compound 24] | 2 | – | – | – |
| CC(O)(CS(=O)(=O)c1ccc(F)cc1)c1cc2cc(C#N)c(C(F)(F)F)cc2[nH]1 (centres unmarked) [Compound 110] | – | – | 58.5 | – |
| CS(=O)(=O)c1ccc(CN2CCC(O)(c3cc4cc(Cl)c(C(F)(F)F)cc4[nH]3)CC2)cc1 [Compound 34] | 18 | 5700 | – | – |
| OC1(c2cc3cc(Cl)c(C(F)(F)F)cc3[nH]2)CCN(Cc2ccc(Cl)cc2)CC1 [Compound 31] | 20 | 4050 | – | – |
| CC(O)(C[S+]([O-])c1ccccc1)c1cc2cc(Cl)c(C(F)(F)F)cc2[nH]1 (centres unmarked) [Compound 115] | – | 1300 | – | 54.5 |
| CC(C)(C)c1ccc(CN2CCC(O)(c3cc4cc(Cl)c(C(F)(F)F)cc4[nH]3)CC2)cc1 [Compound 32] | 34 | 43000 | – | – |
| CC(O)(c1cc2cc([N+](=O)[O-])c(C(F)(F)F)cc2[nH]1)S(=O)(=O)c1ccc(Cl)c(Cl)c1 (racemic) [Compound 255] | 26 | – | – | – |
| COc1cccc(CN2CCC(O)(c3cc4cc([N+](=O)[O-])c(C(F)(F)F)cc4[nH]3)CC2)c1 [Compound 38] | – | 8800 | – | 16 |
